Test results published in patent US6392049B1, “Process for preparing 2,4-dihydroxypyridine and 2,4-dihydroxy-3-nitropyridine” (Aventis Pharmaceuticals Inc., priority 1996, dated 2002).
Read-outs that look alike come from different tables or passages of the source.

What was measured:
A2 receptor = biological target: T1, A2 receptor (Rattus norvegicus, UniProt P30543); test: A2 adenosine receptor binding, displacement of 3H-CGS 21680, rat brain striatum membranes
T1 construct: using membranes from rat brain striatum; from tissue; host or cells: rat brain striatum membranes
T1 sequence (P30543 whole entry): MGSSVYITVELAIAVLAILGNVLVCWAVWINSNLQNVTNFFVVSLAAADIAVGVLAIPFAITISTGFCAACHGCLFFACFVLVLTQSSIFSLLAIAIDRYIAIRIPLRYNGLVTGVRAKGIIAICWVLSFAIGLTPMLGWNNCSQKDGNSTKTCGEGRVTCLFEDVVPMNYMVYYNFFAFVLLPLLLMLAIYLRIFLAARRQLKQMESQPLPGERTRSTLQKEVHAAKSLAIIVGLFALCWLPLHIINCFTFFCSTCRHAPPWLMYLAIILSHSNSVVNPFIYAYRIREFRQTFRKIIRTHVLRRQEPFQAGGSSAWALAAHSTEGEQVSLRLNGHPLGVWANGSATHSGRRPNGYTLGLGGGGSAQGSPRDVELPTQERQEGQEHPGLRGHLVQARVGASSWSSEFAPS
Description: Non-specific binding is assessed in the presence of 20 μm 2-chloroadenosine.
(§1) The assays are run in glass test tubes in duplicate at 25° C. Once the membranes are added, the tubes are vortexed and incubated at 25° C. for 60 minutes (A1 assay) or 90 minutes (A2 assay) on a rotary shaker. The assay tubes are vortexed halfway through the incubation and again near the end. The assays are terminated by rapid filtration through 2.4 cm GF/B filters using a Brandel Cell Harvestor. The test tubes are washed three times with cold 50 mM tris-HCl (pH 7.7 or 7.4), with filtration being completed within 15 seconds. The damp filter circles are placed in glass scintillation vials filled with 10 ml of Aquasol II (New England Nuclear). The vials are allowed to shake overnight on a rotary shaker and are placed into a liquid scintillation analyzer for two minute counts. IC50 values for receptor binding, i.e. the concentration at which a compound of Formula I displaced the radiolabeled standard, are obtained using a curve-fitting computer program (RS/1, Bolt, Beranek and Newman, Boston, Mass.).

A1 receptor = biological target: T2, A1 receptor (Rattus norvegicus, UniProt P25099); test: A1 adenosine receptor binding, displacement of 3H-CHA, whole rat brain membranes; settings: 3H-CHA displacement, 25° C., 60 minutes
T2 construct: using a membrane preparation of whole rat brain; from tissue; host or cells: whole rat brain membranes
T2 sequence (P25099 1-326): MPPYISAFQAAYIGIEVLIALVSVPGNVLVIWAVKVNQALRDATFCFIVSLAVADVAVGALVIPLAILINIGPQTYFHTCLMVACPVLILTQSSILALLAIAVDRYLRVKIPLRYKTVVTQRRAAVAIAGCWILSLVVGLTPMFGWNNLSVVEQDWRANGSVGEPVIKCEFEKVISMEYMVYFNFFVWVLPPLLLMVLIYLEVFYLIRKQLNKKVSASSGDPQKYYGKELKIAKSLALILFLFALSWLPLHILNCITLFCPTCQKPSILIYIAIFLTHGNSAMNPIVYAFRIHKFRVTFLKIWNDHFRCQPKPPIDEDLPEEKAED
Description: Non-specific binding is assessed in the presence of 1 mM theophylline.
as §1

swine coronary arteries = test: In vitro vasorelaxation in isolated swine coronary arteries; assay type: cell-based
Description: Swine coronary arteries are obtained from a local slaughter house, dissected carefully and cleaned of fat, blood and adhering tissue. Rings approximately 2-3 mm wide are cut and transferred to water-jacketed tissue baths (10 mL) filled with warm (37° C.), oxygenated (O2/CO2:95%/5%) Krebs-Henseleit buffer and mounted on L-shaped hooks between stainless steel rods and a force transducer. […] PGF2a, before being exposed to 3 μM PGF2a.

[1] = tested on: normotensive anesthetized rat; test: Mean arterial blood pressure and heart rate in normotensive anesthetized rat; assay type: in vivo; settings: for Anesthetized Rat HR/ED25: intravenous dose lowering heart rate by 25%; for Anesthetized Rat MAP/ED25: intravenous dose lowering mean arterial pressure by 25%
Description: Normotensive rats are anesthetized with sodium pentobarbital (50 mg/kg, i.p.) and placed on a heated surgical table. Cannulas are inserted into the femoral artery and veined to allow the measurement of arterial pressure and to facilitate the intravenous administration of test compounds. The animals are allowed to equilibrate for 10 minutes after surgery. Mean arterial pressure is continuously measured and recorded and heart rate is monitored using the arterial pressure pulse to trigger a cardiotachometer. After baseline parameters are established and recorded, increasing doses (1, 3, 10, 30, 100, 300 and 1000 μg/kg) of the compound of Formula I to be tested are administered intravenously. Maximal changes in the cardiovascular parameters are observed after each dose of the adenosine agonist. Only one compound is administered per rat.

[2] = tested on: spontaneously hypertensive rat (SHR); test: Oral antihypertensive activity in conscious spontaneously hypertensive rat (SHR); assay type: in vivo; settings: D signifies decrease, I signifies increase
Description: The oral antihypertensive activity of compounds of Formula I are examined in conscious spontaneously hypertensive rats. The rats are anesthetized with sodium phenobarbitol (50 mg/kg i.p.). A telemetry transducer is implanted into the rats abdomen via midline incision. The cannula of the transducer is inserted into the abdominal aorta to allow direct measurement of arterial pressure in the conscious SHR. The transducer is secured to the abdominal wall. After recovery from surgery (minimum of seven days), the SHR are placed on a receiver plate and the transducer/transmitter is activated. Systolic, diastolic and mean arterial pressure and heart rate are recorded for 1.5 hours in the unrestrained conscious rat to establish a stable baseline. Each rat then received a single dose of the compound of Formula I to be tested, or vehicle, and changes in arterial pressure and heart rate are monitored for 20 hours and recorded.

rat adipocytes = test: Antilipolytic activity in rat adipocytes (in vitro lipolysis assay, glycerol production); assay type: cell-based; settings: for EC50: read-out: EC50 (50% inhibition of glycerol production); for inhibition at 1 µM: read-out: % Inhibition of glycerol production, 1 μM
Description: Adipose tissue is removed from anesthetized rats and rinsed twice in incubation medium (2.09 g sodium bicarbonate and 0.04 g EDTA, disodium salt, in 1 L Krebs buffer). Each rat (300-350g) yields approximately 4 ml of adipose tissue. The adipose tissue (35 mL) is cut into small pieces with scissors and washed with incubation medium (50 mL). The mixture is poured into the barrel of a 50 mL syringe to which is attached a short piece of clamped tubing instead of a needle. The aqueous phase is allowed to drain. A second wash with incubation medium is passed through the syringe. The tissue is added to 50 mL of collagenase solution (collagenase (90 mg), bovine serum albumin (BSA) (500 mg), and 0.1 M calcium chloride solution (1 mL), in incubation medium (50 mL)) in a 1 L bottle. The mixture is shaken in an environmental at 37 ° C. for about 60 minutes under an atmosphere of 95% oxygen/5% carbon dioxide to effect digestion of the tissue. The dispersed cells are poured through 2 layers of cheese cloth into a 100 mL plastic beaker. The undigested clumps in the cloth are rinsed once with incubation medium (20 mL). The cells in the beaker are centrifuged in 2 plastic tubes for 30 seconds at room temperature at 300 rpm. The aqueous phase is aspirated from beneath the loosely packed layer of floating fat cells and discarded. The adipocytes are gently poured into a 250 mL plastic beaker containing 100 mL of rinse solution (1 g BSA per 100 mL incubation medium). After gentle stirring the centrifugation step is repeated. Another wash with rinse solution follows. The cells are pooled and their volume is estimated with a graduated cylinder. The adipocytes are diluted in twice their volume of assay buffer (incubation medium (120 mL), BSA (1.2 g), pyruvic acid (13 mg)).
The assay is performed in 20 mL plastic scintillation vials and the total assay volume is 4.2 ml. Assay buffer (2.5 mL), diluted adipocytes (1.5 mL), and a solution of the compound to be tested (12.3 μL) adenosine agonist (12.3 μL; varying concentration) is incubated in the environmental shaker for 15 minutes, then the reaction is started with norepinephrine solution (41.2 μL) (10 nM, in a carrier solution containing water (100 mL), BSA (4 mg), and 0.1 M EDTA (20 μL))and adenosine deaminase (1 μg/ml, 41.2 μL). After sixty minutes in the shaker the reaction is terminated by putting the vials on ice. […] The hard lipid layer is removed by aspiration and the aqueous layer is assayed for glycerol (400 μL of sample). The positive control is done in the absence of any adenosine agonist, substituting water in place of the solution to be tested.

[3] = 3H-CGS 21680 displacement, rat brain striatum membranes, 25° C., 90 minutes, read-out: Adenosine Receptor Binding Activity/IC50 (nM) A2
[4] = Sus scrofa, read-out: Vasorelaxation in Swine Coronary Artery/IC50 (μM)
[5] = 50% reduction in tension of rings contracted with 3 μM PGF2a, read-out: Vasorelaxation in Swine Coronary Artery/IC50
[6] = Adipocyte, rat adipocytes, norepinephrine-stimulated
[7] = rat adipocytes, norepinephrine-stimulated
[8] = Sus scrofa, read-out: Vasorelaxation (IC50)

## CCNC(=O)[C@H]1C[C@@H](n2cnc3c(NC(Cc4cccs4)C(C)C)ccnc32)[C@H](O)[C@@H]1O (stereo partly drawn) [Example 38, [1S-[1a,2b,3b,4a]]-4-[7-[[2-(2-thienyl)-1-isopropylethyl]amino]-3H-imidazo[4,5-b]pyridin-3-yl]-N-ethyl-2,3-dihydroxycyclopentanecarboxamide]
A2 receptor; [3]
  IC50: 55.5 nM
A1 receptor
  IC50: 5.7 nM
other
  melting point: 75 to 85 °C
Swine coronary arteries; [4]
  IC50: 0.47 µM

## CCNC(=O)C1CC(n2cnc3c(NCCNc4nc5ccccc5s4)ncnc32)C(O)C1O (racemic) [Example 29, (±)-N^6-[2-(2′-aminobenzothia-zoly)ethyl]carbocyclic adenosine-5′-N-ethyl carboxamide]
[1]
  Anesthetized Rat HR/ED25: 0.031 mg/kg
  Anesthetized Rat MAP/ED25: 0.016 mg/kg
[2]; single oral dose 5 mg/kg
  SHR HR/%: 12 (D) %
  SHR MAP/%: 18 (D) %
Swine coronary arteries; [5]
  IC50: 22 µM

## CCNC(=O)[C@H]1C[C@@H](n2cnc3c(N[C@H](C)Cc4cccs4)ccnc32)[C@H](O)[C@@H]1O [Example 40, [1S-[1a,2b,3b,4a(S*)]]-4-[7-[[2-(2-thienyl)-1-methylethyl]amino]-3H-imidazo[4,5-b]pyridin-3-yl]-N-ethyl-2,3-dihydroxycyclopentane-carboxamide]
A2 receptor; [3]
  IC50: 68.8 nM
A1 receptor
  IC50: 9.3 nM
other
  melting point: 155 to 160 °C
Swine coronary arteries; [4]
  IC50: 283 µM

## CO[C@@H]1[C@H](O)[C@@H](CO)O[C@H]1n1cnc2c(N[C@H](C)Cc3ccc(Cl)s3)ncnc21 [Example 48, N^6-[2-(5-chloro-2-thienyl)-(1R)-1-methylethyl]-2′-O-methyladenosine]
Rat adipocytes; [6]
  EC50: 1.86 nM
A2 receptor; [3]
  IC50: 1440 nM
A1 receptor
  IC50: 8.35 nM

## CCNC(=O)C1CC(n2cnc3c(N[C@H](C)Cc4ccc(Cl)s4)ncnc32)C(O)C1O (single isomer, unassigned; (-)) [Example 6]
[2]; single oral dose 1 mg/kg
  SHR HR/%: 7 (I) %
  SHR MAP/%: 18 (D) %
Rat adipocytes; [7]
  EC50: 0.76 nM
A2 receptor; [3]
  IC50: 12.9 nM
A1 receptor
  IC50: 2.69 nM
Swine coronary arteries; [5]
  IC50: 0.021 µM

## CCNC(=O)[C@H]1O[C@@H](n2cnc3c(N)nc(NCCc4ccc(CCC(=O)O)cc4)nc32)[C@H](O)[C@@H]1O [CGS21680, 2-[[2-[4-[2-carboxethyl)phenyl]ethyl]amino]-N-ethylcarboxamidoadenosine]
Rat adipocytes; Rattus norvegicus, Adipocyte
  inhibition at 1 µM: 0%
Rat adipocytes; statement in words
  antilipolytic activity: do not exhibit antilipolytic activity
Swine coronary arteries; [8]
  IC50: 0.08 µM

## C[C@H](Cc1ccccc1)Nc1ncnc2c1ncn2[C@@H]1O[C@H](CO)[C@@H](O)[C@H]1O [R-PIA, R-phenylisopropyladenosine, reference compound]
Rat adipocytes; [7]
  EC50: 1 nM
Swine coronary arteries; literature compounds, Table V, methods as above, unit inferred, read-out: Vasorelaxation (IC50)
  IC50: 0.76 µM

## CCNC(=O)[C@H]1O[C@@H](n2cnc3c(N)ncnc32)[C@H](O)[C@@H]1O [NECA, N-ethylcarboxamido-adenosine]
Rat adipocytes; Rattus norvegicus, Adipocyte
  EC50: 2.5 nM

## CO[C@@H]1[C@H](O)[C@@H](CO)O[C@H]1n1cnc2c(N[C@@H]3CC=CC[C@H]3c3cccs3)ncnc21 (relative stereo) [Example 49, N^6-[trans-5-(2-thienyl)cyclohex-1-en-4-yl]-2′-O-methyladenosine]
Rat adipocytes; [6]
  EC50: 18.6 nM
A2 receptor; [3]
  IC50: 2880 nM
A1 receptor
  IC50: 69 nM
Swine coronary arteries; [4]
  IC50: 9.81 µM

## CCNC(=O)[C@H]1C[C@@H](n2cnc3c(N[C@H](C)Cc4ccc(Cl)s4)ncnc32)[C@@H]2OC(=S)O[C@@H]21 [Example 46, (2S)-2a,3a-dihydroxy-4β-[N6-[2-(5-chloro-2-thienyl)-(1R)-1-methylethyl]amino-9-adenyl]cyclopentane-1β-N-ethylcarboxamide-2,3-thiocarbonate]
Rat adipocytes; [6]
  EC50: 4 nM
A2 receptor; [3]
  IC50: 81 nM
A1 receptor
  IC50: 13.5 nM
Swine coronary arteries; [4]
  IC50: 3.52 µM

## OC[C@H]1O[C@@H](n2cnc3c(NC4CCCC4)ncnc32)[C@H](O)[C@@H]1O [CPA, N-cyclopentyladenosine]
Rat adipocytes; Rattus norvegicus, Adipocyte, read-out: % Inhibition of glycerol production, 0.1 μM
  inhibition at 0.1 µM: 97%
Rat adipocytes; Rattus norvegicus, Adipocyte
  inhibition at 1 µM: 100%
  EC50: 0.31 nM
A2 receptor
  IC50: 1580 nM
Swine coronary arteries; [8]
  IC50: 3.18 µM

## CCNC(=O)C1CC(n2cnc3c(NCCc4cccs4)ncnc32)C(O)C1O (single isomer, unassigned; (-)) [Example 26, (−)-N^6-[(thiophen-2″-yl)ethan-2-yl]carbocyclic adenosine-5′-N-ethyl carboxamide]
[1]
  Anesthetized Rat HR/ED25: >0.03 mg/kg
  Anesthetized Rat MAP/ED25: 0.004 mg/kg
[2]; single oral dose 2.5 mg/kg
  SHR HR/%: 3 (I) %
  SHR MAP/%: 41 (D) %
Rat adipocytes; 1 μM compound versus positive control, rat adipocytes, norepinephrine-stimulated
  % Inhibition of glycerol production, 1 μM: 96%
Rat adipocytes; [7]
  EC50: 89 nM
A2 receptor; [3]
  IC50: 63.1 nM
A1 receptor
  IC50: 87.1 nM
Swine coronary arteries; [5]
  IC50: 0.082 µM
